pKi: −log10 of the molar value. Like-named read-outs stand apart in the source and are kept apart here.

For the experiment, the target named is human GABA A receptor α5β3γ2 (Homo sapiens (Human), UniProt P18507+P31644). Put plainly: [3H]flumazenil competition binding assay, human GABA A α5β3γ2 receptors expressed in HEK293 cells. The protocol: The affinity of compounds at GABA A receptor subtypes was measured by competition for [3H]flumazenil (85 Ci/mmol; Roche) binding to HEK293 cells expressing rat (stably transfected) or human (transiently transfected) receptors of composition α1β3γ2, α2β3γ2, α3β3γ2 and α5β3γ2.
Cell pellets were suspended in Krebs-tris buffer (4.8 mM KCl, 1.2 mM CaCl2, 1.2 mM MgCl2, 120 mM NaCl, 15 mM Tris; pH 7.5; binding assay buffer), homogenized by polytron for ca. 20 sec on ice and centrifuged for 60 min at 4° C. (50000 g; Sorvall, rotor: SM24=20000 rpm). The cell pellets were resuspended in Krebs-tris buffer and homogenized by polytron for ca. 15 sec on ice. Protein was measured (Bradford method, Bio-Rad) and aliquots of 1 mL were prepared and stored at −80° C.
Assays were incubated to equilibrium for 1 hour at 4° C. and harvested onto GF/C uni-filters (Packard) by filtration using a Packard harvester and washing with ice-cold wash buffer (50 mM Tris; pH 7.5). After drying, filter-retained radioactivity was detected by liquid scintillation counting. Ki values were calculated using Excel-Fit (Microsoft) and are the means of two determinations.

Where [1] appears, read: human receptor, displacement of [3H]flumazenil (0.5 nM), means of two determinations, read-out: hKi GABAAa5.

Take `Cc1onc(-c2ccccc2)c1COc1ccc(C(=O)NCCCCCCO)cn1` [Example 222, N-(6-Hydroxy-hexyl)-6-(5-methyl-3-phenyl-isoxazol-4-ylmethoxy)-nicotinamide]: the pKi under setting [1] is 8.09.
As to `Cc1onc(-c2ccccc2)c1COc1ccc(C(=O)N[C@@H](Cc2ccccc2)C(=O)O)cn1` [Example 231, (S)-2-{[6-(5-Methyl-3-phenyl-isoxazol-4-ylmethoxy)-pyridine-3-carbonyl]-amino}-3-phenyl-propionic acid], under setting [1], the pKi was 7.55.
Still for that read-out and setting: next, `Cc1onc(-c2cccc(F)c2)c1COc1ccc(C(=O)NCC2CC2)cn1` [Example 90, N-Cyclopropylmethyl-6-[3-(3-fluoro-phenyl)-5-methyl-isoxazol-4-ylmethoxy]-nicotinamide]: 8.49; `COCCCNC(=O)c1ccc(OCc2c(-c3ccccc3)noc2C)nc1` [Example 15, N-(3-Methoxy-propyl)-6-(5-methyl-3-phenyl-isoxazol-4-ylmethoxy)-nicotinamide]: 8.28.
Take `Cc1onc(-c2ccccc2)c1COc1ccc(C(=O)NC2CCCN(CC(=O)NC3CC3)C2)cn1` (centres unmarked) [Example 43, N-(1-Cyclopropylcarbamoylmethyl-piperidin-3-yl)-6-(5-methyl-3-phenyl-isoxazol-4-ylmethoxy)-nicotinamide]: under setting [1], the pKi is 7.91.
For the molecule `Cc1onc(-c2ccccc2)c1COc1ccc(C(=O)NC2CCN(C(C)C)CC2)cn1` [Example 36, N-(1-Isopropyl-piperidin-4-yl)-6-(5-methyl-3-phenyl-isoxazol-4-ylmethoxy)-nicotinamide], the pKi is 8.00.
Turning to `Cc1onc(-c2ccccc2)c1COc1ccc(C(=O)NC2CCOCC2)cn1` [Example 31, 6-(5-Methyl-3-phenyl-isoxazol-4-ylmethoxy)-N-(tetrahydro-pyran-4-yl)-nicotinamide], under setting [1], the pKi is 8.68.
Same read-out and setting: next, `Cc1onc(-c2ccccc2)c1COc1ccc(C(=O)OC(C)C)cn1` [Example 83, 6-(5-Methyl-3-phenyl-isoxazol-4-ylmethoxy)-nicotinic acid isopropyl ester]: 8.33; `Cc1onc(-c2ccccc2)c1COc1ccc(C(=O)NCC2CC2)cn1` [Example 16, N-Cyclopropylmethyl-6-(5-methyl-3-phenyl-isoxazol-4-ylmethoxy)-nicotinamide]: 8.41; `Cc1onc(-c2ccncn2)c1COc1ccc(C(=O)NC(C)(C)CO)cn1` [Example 315, N-(2-Hydroxy-1,1-dimethyl-ethyl)-6-(5-methyl-3-pyrimidin-4-yl-isoxazol-4-ylmethoxy)-nicotinamide]: 8.09.
Same read-out and setting: next, `Cc1onc(-c2ccc(Cl)cn2)c1COc1ccc(C(=O)NC2CCOCC2)cn1` [Example 301, 6-[3-(5-Chloro-pyridin-2-yl)-5-methyl-isoxazol-4-ylmethoxy]-(tetrahydro-pyran-4-yl)-nicotinamide]: 9.52; `Cc1cc(C(=O)NC(C)C)cnc1OCc1c(-c2ccccc2)noc1C` [Example 69, N-Isopropyl-5-methyl-6-(5-methyl-3-phenyl-isoxazol-4-ylmethoxy)-nicotinamide]: 8.53; `Cc1onc(-c2ccc(F)cn2)c1COc1ccc(C(=O)N[C@@H](C)C(F)(F)F)cn1` [Example 299, 6-[3-(5-Fluoro-pyridin-2-yl)-5-methyl-isoxazol-4-ylmethoxy]-N—((S)-2,2,2-trifluoro-1-methyl-ethyl)-nicotinamide]: 9.30.
The same measure, in the same setting: next, `Cc1onc(-c2ccccc2)c1COc1ccc(C(=O)N2CCC2)cn1` [Example 240, Azetidin-1-yl-[6-(5-methyl-3-phenyl-isoxazol-4-ylmethoxy)-pyridin-3-yl]-methanone]: 7.86.
Consider `CCN1CCCC(NC(=O)c2ccc(OCc3c(-c4ccccc4)noc3C)nc2)C1` (centres unmarked) [Example 39, N-(1-Ethyl-piperidin-3-yl)-6-(5-methyl-3-phenyl-isoxazol-4-ylmethoxy)-nicotinamide], for which the pKi under setting [1] was 8.30.
On the same count and under the same terms, the result for `Cc1onc(-c2ccc(Cl)cn2)c1COc1ccc(C(=O)NC(C)(C)CO)cn1` [Example 305, 6-[3-(5-Chloro-pyridin-2-yl)-5-methyl-isoxazol-4-ylmethoxy]-(2-hydroxy-1,1-dimethyl-ethyl)-nicotinamide] reads 9.22; that for `C[C@@H](CO)NC(=O)c1ccc(OCc2conc2-c2ccc(Cl)cc2)nc1` [Example 355, 6-[3-(4-Chloro-phenyl)-isoxazol-4-ylmethoxy]-N—((S)-2-hydroxy-1-methyl-ethyl)-nicotinamide], 8.37.
The same measure, in the same setting: next, `CNC(=O)c1ccc(OCc2conc2-c2ccc(F)cn2)nc1` [Example 372, 6-[3-(5-Fluoro-pyridin-2-yl)-isoxazol-4-ylmethoxy]-methyl-nicotinamide]: 7.73.
Same read-out and setting: the result for `CC(C)(CO)NC(=O)c1ccc(OCc2conc2-c2ccc(F)cn2)nc1` [Example 368, 6-[3-(5-Fluoro-pyridin-2-yl)-isoxazol-4-ylmethoxy]-(2-hydroxy-1,1-dimethyl-ethyl)-nicotinamide] reads 7.35.
`O=C(N[C@@H]1CCC[C@H]1O)c1ccc(OCc2conc2-c2ccc(F)cc2)nc1` (single isomer, unassigned) [Example 332, 6-[3-(4-Fluoro-phenyl)-isoxazol-4-ylmethoxy]-N-((1R,2R)-2-hydroxy-cyclopentyl)-nicotinamide or 6-[3-(4-fluoro-phenyl)-isoxazol-4-ylmethoxy]-N-((1S,2S)-2-hydroxy-cyclopentyl)-nicotinamide]: the pKi under setting [1] was 7.65.
On to `C[C@H](NC(=O)c1ccc(OCc2conc2-c2ccc(Cl)cc2)nc1)C(F)(F)F` [Example 357, 6-[3-(4-Chloro-phenyl)-isoxazol-4-ylmethoxy]-N—((S)-2,2,2-trifluoro-1-methyl-ethyl)-nicotinamide], for which, under setting [1], the pKi was around 7.70.
On the same count and under the same terms, next, `Cc1onc(-c2ccncn2)c1COc1ccc(C(=O)N2CCOCC2)cn1` [Example 316, [6-(5-Methyl-3-pyrimidin-4-yl-isoxazol-4-ylmethoxy)-pyridin-3-yl]-morpholin-4-yl-methanone]: 7.44; `Cc1onc(-c2ccccc2)c1COc1cc(C(F)(F)F)c(C(=O)O)cn1` [Example 61, 6-(5-Methyl-3-phenyl-isoxazol-4-ylmethoxy)-4-trifluoromethyl-nicotinic acid]: 7.74.
In the case of `Cc1onc(-c2ccccc2)c1COc1ccc([N+](=O)[O-])cn1` [Example 6, 2-(5-Methyl-3-phenyl-isoxazol-4-ylmethoxy)-5-nitro-pyridine], the pKi under setting [1] was 7.65.
As to `Cc1onc(-c2ccccc2)c1COc1ccc(C(=O)NC2COCc3ccccc32)cn1` (centres unmarked) [Example 79, N-Isochroman-4-yl-6-(5-methyl-3-phenyl-isoxazol-4-ylmethoxy)-nicotinamide], the pKi under setting [1] was 7.17.
`O=C(NCC(O)C(F)(F)F)c1ccc(OCc2conc2-c2ccc(F)cc2)nc1` (centres unmarked) [Example 333, 6-[3-(4-Fluoro-phenyl)-isoxazol-4-ylmethoxy]-N-(3,3,3-trifluoro-2-hydroxy-propyl)-nicotinamide]: the pKi under setting [1] is 7.88.
With `Cc1onc(-c2ccccc2)c1COc1ccc(C(=O)NCC(F)F)cn1` [Example 11, N-(2,2-Difluoro-ethyl)-6-(5-methyl-3-phenyl-isoxazol-4-ylmethoxy)-nicotinamide], the pKi under setting [1] is 8.70.
The same measure, in the same setting: the result for `Cc1onc(-c2ccncc2)c1COc1ccc(C(=O)NC2CC2)cn1` [Example 148, N-Cyclopropyl-6-(5-methyl-3-pyridin-4-yl-isoxazol-4-ylmethoxy)-nicotinamide] reads 8.15; that for `Cc1onc(-c2ccccc2)c1COc1ccc(C(=O)NCCC(C)O)cn1` (centres unmarked) [Example 215, N-(3-Hydroxy-butyl)-6-(5-methyl-3-phenyl-isoxazol-4-ylmethoxy)-nicotinamide], 8.64.
With `Cc1onc(-c2ccccc2)c1COc1ccc(C(=O)NCCCCCO)cn1` [Example 221, N-(5-Hydroxy-pentyl)-6-(5-methyl-3-phenyl-isoxazol-4-ylmethoxy)-nicotinamide], the pKi under setting [1] was 8.39.
Regarding `Cc1onc(-c2ccccc2)c1COc1ccc(C(=O)NC2CCCN(CC(=O)NCC(F)(F)F)C2)cn1` (centres unmarked) [Example 44, 6-(5-Methyl-3-phenyl-isoxazol-4-ylmethoxy)-N-{1-[(2,2,2-trifluoro-ethylcarbamoyl)-methyl]-piperidin-3-yl}-nicotinamide], the pKi under setting [1] is 8.00.
Regarding `Cc1onc(-c2ccccc2)c1COc1ccc(NC(=O)C2CC2)cn1` [Example 182, Cyclopropanecarboxylic acid [6-(5-methyl-3-phenyl-isoxazol-4-ylmethoxy)-pyridin-3-yl]-amide], the pKi under setting [1] is 8.00.
As for `CC(C)NC(=O)c1ccc(OCc2c(-c3ccccc3)noc2C(F)(F)F)nc1` [Example 133, N-Isopropyl-6-(3-phenyl-5-trifluoromethyl-isoxazol-4-ylmethoxy)-nicotinamide], the pKi under setting [1] is 7.38.
As for `COC(=O)c1ccc(NCc2c(-c3cccc(F)c3)noc2C)nc1` [Example 167, 6-{[3-(3-Fluoro-phenyl)-5-methyl-isoxazol-4-ylmethyl]-amino}-nicotinic acid methyl ester], under setting [1], the pKi is 7.16.
With `CC(C)NC(=O)c1ccc(OCc2conc2-c2ccc(Cl)cc2)nc1` [Example 344, 6-[3-(4-Chloro-phenyl)-isoxazol-4-ylmethoxy]-N-isopropyl-nicotinamide], the pKi under setting [1] was 8.25.

For the origin of these results see patent US8846719B2, “Isoxazolo-pyridine derivatives” (Roche Palo Alto LLC, priority 2007, dated 2014).
